“Also recorded” adds a separate entry of the source.
Key:
Format in all cases: in vivo, human cells in mice
[1] = test system: A2058 human melanoma cells; assay: A2058 melanoma xenograft in CD-1 nude mice, combination with DTIC (1.6); conditions: A2058 (melanoma), CD-1; SEQ ID NO:1 10 mg/kg i.v. every other day; DTIC 80 mg/kg i.v. days 6-10
Procedure: After 52 days the mice were sacrificed and the tumours weighed. […] Mitoxantrone was administered intravenously once at the beginning of the treatments at a dose of 2 mg/kg (FIG. 4A) or once a week for four weeks at a reduced dose of 0.8 mg/kg (FIG. 4B). All treatments were stopped at day 50 (FIG. 4A) or 48 (FIG. 4B), respectively. […] Mitoxantrone was administered intravenously once at the beginning of the treatments at a dose of 2 mg/kg (FIG. 5A) or once a week for four weeks at a reduced dose of 0.8 mg/kg (FIG. 5B). All treatments were stopped at day 42 (FIG. 5A) or 38 (FIG. 5B), respectively. […] A2058 is a metastatic melanoma cell line. […] All treatments were stopped at day 24. […] Taxol was administered intravenously once a week at a dose of 10 mg/kg for three (FIG. 7A) or four weeks (FIG. 7C). Doxorubicin was administered intravenously once a week at a dose of 5 mg/kg for first three weeks (FIG. 7A) or for two weeks (FIG. 7C). All treatments were stopped at day 33 (FIG. 7A) or at day 26 (FIG. 7C), respectively. […] In FIG. 7C, antitumour activities were estimated by the inhibition of tumour volume, which was measured with calipers. Each point represents mean tumour volume calculated from 10 animals per experimental group. […] Taxol was administered intravenously once a week for first three weeks and intraperitoneally once a week for next two weeks at a dose of 10 mg/kg. Cisplatin was administered intravenously once a week for first three weeks and intraperitoneally once a week for next two weeks at a dose of 4 mg/kg. All treatments were stopped at day 40. Antitumour activities were estimated by the inhibition of tumour volume, which was measured with caliper. Each point represents mean tumour volume calculated from 9 animals per experimental group.

[2] = test system: BxPC-3 human pancreatic carcinoma cells; assay: BxPC-3 gemcitabine resistant pancreatic carcinoma xenograft in CD-1 nude mice; conditions: Gemcitabine 100 mg/kg i.v. every three days
Procedure: BxPC-3 is a gemcitabine resistant call line. […] Gemcitabine was administered intravenously every three days at a dose of 100 mg/kg. Antitumour activities were estimated by the inhibition of tumour volume, which was measured with caliper. Each point represents mean tumour volume calculated from 10 animals per experimental group. […] Hela S3 is a hydroxyurea resistant cell line. […] Hydroxyurea was administered intraperitoneally every day at a dose of 250 mg/kg for 10 days. Cisplatin was administered intravenously once a week for three weeks at a dose of 4 mg/kg. Antitumour activities were estimated by the inhibition of tumour volume, which was measured with caliper. Each point represents mean tumour volume calculated from 10 animals per experimental group. […] Cisplatin was administered intravenously once a week for three weeks at a dose of 4 mg/kg. Taxol was administered intravenously once a week for three weeks at a dose of 10 mg/kg. Antitumour activities were estimated by the inhibition of tumour volume, which was measured with caliper. Each point represents mean tumour volume calculated from 10 animals per experimental group. […] Taxol was administered i.p. once a week at a dose of 10 mg/kg. Antitumour activities were estimated by the inhibition of tumour volume (FIG. 12A), which was measured with calipers. Each point represents mean tumour volume calculated from 10 animals per experimental group. Animals were sacrificed and tumour weights taken at the end of the study (FIG. 12C). […] Cisplatin was administered intravenously once a week for four weeks at a dose of 4 mg/kg. Taxol was administered intravenously once a week for four weeks at a dose of 20 mg/kg. Antitumour activities were estimated by the inhibition of tumour volume, which was measured with caliper. Each point represents mean tumour volume calculated from 9-10 animals per experimental group. […] Cisplatin was administered intravenously once a week for four weeks at a dose of 4 mg/kg. Antitumour activities were estimated by the inhibition of tumour volume, which was measured with caliper. Each point represents mean tumour volume calculated from 10 animals per experimental group. At the end of the study the animals were sacrificed and tumours weighed. […] Taxol was administered i.p. once a week at a dose of 10 mg/kg. Anti-tumour activity was estimated by the inhibition of tumour volume, which was measured with caliper. Each point represents mean tumour volume calculated from 10 animals per experimental group. […] Antitumour activities were estimated by the inhibition of tumour volume, which was measured with caliper. Each point represents mean tumour volume calculated from 10 animals per experimental group. Tumour weights were measured after animals were sacrificed at the end of the treatment. […]

[3] = test system: A498 human kidney cancer cells; assay: A498 kidney tumour xenograft in SCID mice, controls and chemotherapeutics (Example 7); conditions: oligonucleotides 10 mg/kg/2 days i.v., 5-FU 13 mg/kg/day×5, vinblastine 1 mg/kg/week, gemcitabine 100 mg/kg/week
From the text: CD-1 athymic female nude mice, BALB/c nu/nu nude mice, SCID, and SCID beige mice were purchased from Charles River Laboratories (Montreal, Canada) and experiments were typically initiated when the mice were 6-7 weeks old. […] Each experimental group typically contained 10 mice. After the size of tumour reached a mean tumour volume of 50-100 mm^3, treatment was initiated. […] Anti-tumour activity was estimated by the measurement of tumour volume with a calliper at two-three day intervals. Tumour volume was calculated by a formula L×W×H/2, where L indicates length, W indicates width and H indicates height. Within 24 hours after the last treatment, the animals were sacrificed and tumour and body weights were measured. Results of statistical analyses of the data are presented as P values in the figure legends.
Three additional treatment groups received: 5-FU (13 mg/kg/day×5), vinblastine (1 mg/kg/week) and gemcitabine (100 mg/kg/week). […] Caliper measurements at 1-week intervals were used to calculate tumour volumes. Each point in FIG. 28C represents mean tumour volume calculated from 10 animals per experimental group (with the exception of SEQ ID NO: 1 which was 8 animals). […] After 54 days the mice were sacrificed and the A498 tumours weighed. Each bar represents the mean tumour weight and standard error calculated for each treatment group.

[4] = test system: PC-3 human prostatic cancer cells; assay: PC-3 prostatic tumour xenograft in SCID mice, combination with mitoxantrone (1.4)
Procedure: (§1) After 52 days the mice were sacrificed and the tumours weighed. […] In both experiments, PC-3 human prostatic cancer cells (1×10^7 cells in 100 μl of PBS) were subcutaneously injected into the right flank of 6-7 weeks old male SCID mice. After the size of tumour reached an approximate volume of 50 mm^3, 14 days post tumour cell injection, SEQ ID NO: 1 was administered by bolus infusion into the tail vein every other day at 10 mg/kg 18 times (FIG. 4A) or 17 times (FIG. 4B), respectively. Control animals received saline alone for the same period. Antitumour effect of SEQ ID NO:1 was further compared to that of mitoxantrone (novantrone) alone or in combination. Mitoxantrone was administered intravenously once at the beginning of the treatments at a dose of 2 mg/kg (FIG. 4A) or once a week for four weeks at a reduced dose of 0.8 mg/kg (FIG. 4B). All treatments were stopped at day 50 (FIG. 4A) or 48 (FIG. 4B), respectively. A day after the last treatment, tumours were excised from the animals and their weights were measured. […] In both experiments, DU145 human prostatic cancer cells (1×10^7 cells in 100 μl of PBS) were subcutaneously injected into the right flank of 6-7 weeks old male SCID mice. After the size of tumour reached an approximate volume of 50 mm^3, 13 (FIG. 5A) or 11 (FIG. 5B) days post tumour cell injection, SEQ ID NO:1 was administered by bolus infusion into the tail vein every other day at 10 mg/kg 15 times (FIG. 5A) or 14 times (FIG. 5B), respectively. Control animals received saline alone for the same period. Antitumour effect of SEQ ID NO:1 was further compared to that of mitoxantrone (novantrone) alone or in combination. Mitoxantrone was administered intravenously once at the beginning of the treatments at a dose of 2 mg/kg (FIG. 5A) or once a week for four weeks at a reduced dose of 0.8 mg/kg (FIG. 5B). All treatments were stopped at day 42 (FIG. 5A) or 38 (FIG. 5B), respectively. A day after the last treatment, tumours were excised from the animals and their weights were measured.

[5] = test system: DU145 human prostatic cancer cells; assay: DU145 prostatic tumour xenograft in SCID mice, combination with mitoxantrone (1.5); conditions: for Tumour weight as % of saline control: DU145 (prostatic), SCID, SEQ ID NO:1 10 mg/kg i.v. every other day, mitoxantrone i.v.
Procedure: as §1

## CN(C)/N=N/c1[nH]cnc1C(N)=O [DTIC, dacarbazine, reference compound]
[1]
  Tumour weight as % of saline control: 68%

## Nc1ccn([C@@H]2O[C@H](CO)[C@@H](O)C2(F)F)c(=O)n1 [Gemcitabine, reference compound]
[2]; BxPC-3 (pancreatic), Gemcitabine resistant, CD-1, SEQ ID NO:1 10 mg/kg i.v. every other day 17 times
  Tumour weight as % of saline control: 83%
[2]; BxPC-3 gemcitabine resistant, CD-1 nude mice, SEQ ID NO:1 10 mg/kg i.v. every other day
  Antitumour effect (tumour volume, FIG. 9): ineffective against Gemcitabine-resistant tumour
[3]
  Effect on tumour growth (volume and weight): ineffective in stabilization of the tumours; also recorded: at best, a delay in the rate of tumour growth

## O=C1c2c(O)ccc(O)c2C(=O)c2c(NCCNCCO)ccc(NCCNCCO)c21 [Novantrone, mitoxantrone]
[4]; PC-3 (prostatic), SCID, SEQ ID NO:1 10 mg/kg i.v. every other day, mitoxantrone (novantrone) i.v., table does not say which of two experiments
  Tumour weight as % of saline control: 57%
[4]; PC-3, SCID mice, SEQ ID NO:1 10 mg/kg i.v. every other day 17 times, mitoxantrone 0.8 mg/kg i.v. once a week for four weeks
  Antitumour effect (tumour weight, FIG. 4B): significant delay of tumour growth
[5]; first of two printed values (two independent experiments)
  Tumour weight as % of saline control: 40%
[5]; second of two printed values (two independent experiments)
  Tumour weight as % of saline control: 60%
[5]; DU145, SCID mice, SEQ ID NO:1 10 mg/kg i.v. every other day 14 times, mitoxantrone 0.8 mg/kg i.v. once a week for four weeks
  Antitumour effect (tumour weight, FIG. 5B): significant delay of tumour growth
